# In US20240174618A1, “SUBSTITUTED (2-HETEROARYLOXYPHENYL)SULFONATES, SALTS THEREOF AND THEIR USE AS HERBICIDAL AGENTS” (Bayer Aktiengesellschaft, priority 2021, published 2024):
# Tests used:
# Assay type in all cases: in vivo
# [1] = system: Abutilon theophrasti (ABUTH); assay: A. Herbicidal pre-emergence efficacy, ABUTH; conditions: scored visually after about 3 weeks vs untreated controls
# Excerpt: (§1) Seeds of mono- and dicotyledonous weed plants were placed in plastic pots in sandy loam soil (doubly sown with one species each of mono- or dicotyledonous weed plants per pot) and covered with soil. The compounds of the invention, formulated in the form of wettable powders (WP) or as emulsion concentrates (EC), were then applied onto the surface of the covering soil as aqueous suspension or emulsion with addition of 0.5% additive at a water application rate of 600 liters per hectare (converted). After the treatment, the pots were placed in a greenhouse and kept under good growth conditions for the test plants. After about 3 weeks, the efficacy of the preparations was scored visually in comparison with untreated controls as percentages.
# (§2) For example, • 100% efficacy=plants have died, • 0% efficacy=like untreated control plants.
# (§3) Tables A1a to A12c below show the effects of selected compounds of the general formula (I) according to table 1 on various harmful plants at an application rate corresponding to 1280 g/ha or less, which were obtained by the experimental procedure mentioned above.
# [2] = system: Echinochloa crus-galli (ECHCG); assay: A. Herbicidal pre-emergence efficacy, ECHCG; conditions: scored visually after about 3 weeks vs untreated controls
# Excerpt: as §1, §2, §3
# [3] = system: Kochia scoparia (KCHSC); assay: A. Herbicidal pre-emergence efficacy, KCHSC
# Excerpt: as §1, §2, §3
# [4] = system: Matricaria inodora (MATIN); assay: A. Herbicidal pre-emergence efficacy, MATIN
# Excerpt: as §1, §2, §3
# [5] = system: Poa annua (POAAN); assay: A. Herbicidal pre-emergence efficacy, POAAN; conditions: dosage 1280 g/ha
# Excerpt: as §1, §2, §3
# [6] = system: Setaria viridis (SETVI); assay: A. Herbicidal pre-emergence efficacy, SETVI
# Excerpt: as §1, §2, §3
# [7] = system: Veronica persica (VERPE); assay: A. Herbicidal pre-emergence efficacy, VERPE
# Excerpt: as §1, §2, §3
# [8] = system: Amaranthus retroflexus (AMARE); assay: A. Herbicidal pre-emergence efficacy, AMARE
# Excerpt: as §1, §2, §3
# [9] = system: Kochia scoparia (KCHSC); assay: B. Herbicidal post-emergence efficacy, KCHSC; conditions: for Post-emergence efficacy against KCHSC in %: rated visually after about 3 weeks; for Post-emergence efficacy against KCHSC: 1280 g/ha
# Experimental: (§4) Seeds of mono- and dicotyledonous weed plants were placed in plastic pots in sandy loam soil (doubly sown with in each case one species of mono- or dicotyledonous weed plants per pot), covered with soil and cultivated in a greenhouse under controlled growth conditions. 2 to 3 weeks after sowing, the test plants were treated at the one-leaf stage. The compounds of the invention, formulated in the form of wettable powders (WP) or as emulsion concentrates (EC), were applied onto the green parts of the plants as aqueous suspension or emulsion with addition of 0.5% additive at a water application rate of 600 liters per hectare (converted). After the test plants had been kept in the greenhouse under optimum growth conditions for about 3 weeks, the activity of the preparations was rated visually in comparison to untreated controls.
# (§5) For example, • 100% efficacy=plants have died, • 0% efficacy=like untreated control plants
# (§6) Tables B1a to B12c below show the effects of selected inventive compounds of the general formula (I) according to table 1 on various harmful plants at an application rate corresponding to 1280 g/ha or less, which were obtained by the experimental procedure mentioned above.
# [10] = system: Veronica persica (VERPE); assay: B. Herbicidal post-emergence efficacy, VERPE
# Experimental: as §4, §5, §6
# [11] = system: Amaranthus retroflexus (AMARE); assay: B. Herbicidal post-emergence efficacy, AMARE
# Experimental: as §4, §5, §6
# [12] = system: Lolium rigidum (LOLRI); assay: A. Herbicidal pre-emergence efficacy, LOLRI; conditions: dosage 1280 g/ha
# Excerpt: as §1, §2, §3
# [13] = system: Stellaria media (STEME); assay: A. Herbicidal pre-emergence efficacy, STEME
# Excerpt: as §1, §2, §3
# [14] = system: Abutilon theophrasti (ABUTH); assay: B. Herbicidal post-emergence efficacy, ABUTH; conditions: rated visually after about 3 weeks
# Experimental: as §4, §5, §6
# [15] = system: Echinochloa crus-galli (ECHCG); assay: B. Herbicidal post-emergence efficacy, ECHCG; conditions: 1280 g/ha, rated visually after about 3 weeks
# Experimental: as §4, §5, §6
# [16] = system: Poa annua (POAAN); assay: B. Herbicidal post-emergence efficacy, POAAN; conditions: 1280 g/ha
# Experimental: as §4, §5, §6
# [17] = system: Stellaria media (STEME); assay: B. Herbicidal post-emergence efficacy, STEME
# Experimental: as §4, §5, §6
# [18] = system: Digitaria sanguinalis (DIGSA); assay: A. Herbicidal pre-emergence efficacy, DIGSA; conditions: scored visually after about 3 weeks vs untreated controls
# Excerpt: as §1, §2, §3
# [19] = pre-emergence, dosage 1280 g/ha
Compound,Pre-emergence efficacy against ABUTH ([1]; 1280 g/ha),Pre-emergence efficacy against ECHCG ([2]; 1280 g/ha),"Pre-emergence efficacy against KCHSC [3, 19]",Pre-emergence efficacy against POAAN [5],Pre-emergence efficacy against SETVI ([6]; dosage 320 g/ha),Pre-emergence efficacy against SETVI ([6]; dosage 1280 g/ha),Pre-emergence efficacy against VERPE in % ([7]; 1280 g/ha),Pre-emergence efficacy against AMARE in % ([8]; 320 g/ha),Pre-emergence efficacy against AMARE in % ([8]; 1280 g/ha),Post-emergence efficacy against KCHSC in % ([9]; 320 g/ha),Post-emergence efficacy against KCHSC [9],Post-emergence efficacy against VERPE ([10]; 320 g/ha),Post-emergence efficacy against VERPE ([10]; 1280 g/ha),Post-emergence efficacy against AMARE ([11]; 320 g/ha),Post-emergence efficacy against AMARE ([11]; 1280 g/ha),Pre-emergence efficacy against STEME ([13]; dosage 1280 g/ha),Post-emergence efficacy against ABUTH in % ([14]; 1280 g/ha),Post-emergence efficacy against POAAN [16],Post-emergence efficacy against STEME ([17]; 1280 g/ha),Pre-emergence efficacy against DIGSA ([18]; 1280 g/ha),also measured
CS(=O)(=O)Oc1ccccc1Oc1ncc(Cl)cn1 [Example I-1],100%,100%,100%,90%,90%,100%,100%,100%,100%,100%,100%,90%,100%,100%,100%,,,,,,"Pre-emergence efficacy against KCHSC ([3]; pre-emergence, dosage 320 g/ha): 100%; Pre-emergence efficacy against MATIN ([4]; 320 g/ha, scored visually after about 3 weeks vs untreated controls): 90%; Pre-emergence efficacy against MATIN [4, 19]: 100%; Pre-emergence efficacy against VERPE in % ([7]; 320 g/ha): 100%; Pre-emergence efficacy against AMARE in % ([8]; 80 g/ha): 100%; Post-emergence efficacy against KCHSC in % ([9]; 80 g/ha): 90%; Post-emergence efficacy against AMARE ([11]; 80 g/ha): 100%"
CC(C)S(=O)(=O)Oc1ccccc1Oc1ncc(Cl)cn1 [Example I-18],100%,100%,,90%,,90%,100%,100%,100%,100%,100%,90%,90%,100%,100%,90%,90%,90%,90%,,"Pre-emergence efficacy against ABUTH ([1]; 320 g/ha): 90%; Pre-emergence efficacy against ECHCG ([2]; 320 g/ha): 90%; Pre-emergence efficacy against LOLRI [12]: 90%; Pre-emergence efficacy against MATIN [4, 19]: 90%; Pre-emergence efficacy against VERPE in % ([7]; 320 g/ha): 90%; Post-emergence efficacy against ECHCG in % [15]: 90%"
O=S(=O)(Oc1ccccc1Oc1ncc(Cl)cn1)C1CCCC1 [Example I-19],100%,90%,90%,90%,90%,100%,,100%,100%,90%,100%,90%,100%,90%,100%,100%,90%,90%,100%,100%,"Pre-emergence efficacy against ABUTH ([1]; 320 g/ha): 90%; Pre-emergence efficacy against DIGSA ([18]; 80 g/ha): 100%; Pre-emergence efficacy against DIGSA ([18]; 320 g/ha): 100%; Pre-emergence efficacy against KCHSC ([3]; pre-emergence, dosage 320 g/ha): 90%; Pre-emergence efficacy against STEME ([13]; dosage 320 g/ha): 100%; Pre-emergence efficacy against AMARE in % ([8]; 80 g/ha): 90%; Post-emergence efficacy against ABUTH in % ([14]; 320 g/ha): 90%; Post-emergence efficacy against ECHCG in % [15]: 90%; Post-emergence efficacy against STEME ([17]; 80 g/ha): 90%; Post-emergence efficacy against STEME ([17]; 320 g/ha): 100%; Post-emergence efficacy against VERPE ([10]; 80 g/ha): 90%"
COCCS(=O)(=O)Oc1ccccc1Oc1ncc(Cl)cn1 [Example I-20],100%,100%,100%,90%,90%,100%,,,90%,90%,100%,90%,100%,90%,100%,100%,90%,90%,100%,100%,"Pre-emergence efficacy against ABUTH ([1]; 80 g/ha): 100%; Pre-emergence efficacy against ABUTH ([1]; 320 g/ha): 100%; Pre-emergence efficacy against DIGSA ([18]; 320 g/ha): 100%; Pre-emergence efficacy against KCHSC ([3]; 80 g/ha, scored visually after about 3 weeks vs untreated controls): 90%; Pre-emergence efficacy against KCHSC ([3]; pre-emergence, dosage 320 g/ha): 90%; Pre-emergence efficacy against LOLRI [12]: 90%; Pre-emergence efficacy against MATIN [4, 19]: 100%; Pre-emergence efficacy against STEME ([13]; dosage 320 g/ha): 100%"
CCC(C)S(=O)(=O)Oc1ccccc1Oc1ncc(Cl)cn1 (stereo not shown) [Example I-22],100%,90%,100%,90%,90%,100%,90%,90%,100%,90%,100%,100%,100%,90%,100%,100%,100%,90%,90%,100%,"Pre-emergence efficacy against ABUTH ([1]; 320 g/ha): 100%; Pre-emergence efficacy against DIGSA ([18]; 320 g/ha): 100%; Pre-emergence efficacy against ECHCG ([2]; 320 g/ha): 90%; Pre-emergence efficacy against KCHSC ([3]; pre-emergence, dosage 320 g/ha): 90%; Pre-emergence efficacy against LOLRI [12]: 90%; Pre-emergence efficacy against STEME ([13]; dosage 80 g/ha): 100%; Pre-emergence efficacy against STEME ([13]; dosage 320 g/ha): 100%; Pre-emergence efficacy against AMARE in % ([8]; 80 g/ha): 90%; Post-emergence efficacy against ABUTH in % ([14]; 320 g/ha): 90%; Post-emergence efficacy against KCHSC in % ([9]; 80 g/ha): 90%; Post-emergence efficacy against STEME ([17]; 80 g/ha): 90%; Post-emergence efficacy against STEME ([17]; 320 g/ha): 90%; Post-emergence efficacy against VERPE ([10]; 80 g/ha): 90%"
Cc1cccc(Oc2ncc(Cl)cn2)c1OS(=O)(=O)CCCC(F)(F)C(F)(F)F [Example I-69],90%,90%,90%,,,100%,100%,100%,100%,100%,100%,100%,100%,100%,100%,90%,100%,90%,100%,90%,Pre-emergence efficacy against AMARE in % ([8]; 80 g/ha): 90%; Post-emergence efficacy against ABUTH in % ([14]; 80 g/ha): 90%; Post-emergence efficacy against ABUTH in % ([14]; 320 g/ha): 90%; Post-emergence efficacy against ECHCG in % [15]: 100%; Post-emergence efficacy against KCHSC in % ([9]; 80 g/ha): 90%; Post-emergence efficacy against STEME ([17]; 320 g/ha): 90%; Post-emergence efficacy against VERPE ([10]; 80 g/ha): 100%; Post-emergence efficacy against AMARE ([11]; 80 g/ha): 100%
O=S(=O)(CCC(F)=C(F)F)Oc1c(Br)cccc1Oc1ncc(Cl)cn1 [Example I-72],90%,,90%,100%,90%,100%,90%,90%,100%,100%,100%,100%,100%,100%,100%,100%,100%,90%,100%,100%,Pre-emergence efficacy against DIGSA ([18]; 320 g/ha): 90%; Pre-emergence efficacy against LOLRI [12]: 90%; Pre-emergence efficacy against STEME ([13]; dosage 320 g/ha): 90%; Pre-emergence efficacy against VERPE in % ([7]; 320 g/ha): 90%; Post-emergence efficacy against ABUTH in % ([14]; 320 g/ha): 90%; Post-emergence efficacy against ECHCG in % [15]: 100%; Post-emergence efficacy against KCHSC in % ([9]; 80 g/ha): 90%; Post-emergence efficacy against STEME ([17]; 80 g/ha): 90%; Post-emergence efficacy against STEME ([17]; 320 g/ha): 100%; Post-emergence efficacy against VERPE ([10]; 80 g/ha): 100%; Post-emergence efficacy against AMARE ([11]; 80 g/ha): 100%
